In US20250145645A1, “BORON CARRYING AGENT, PREPARATION METHOD AND PHARMACEUTICAL FORMULATION THEREOF” (Peking University, priority 2021, published 2025):

Tests used:
[1] = test system: rat cerebral 9L gliosarcoma; conditions: cited from earlier work
[2] = test system: U87MG, U251, A549 and A375 cell lines; assay: Boron uptake in tumor cell lines, B content in cells by ICP-AES; type: cell-based; conditions: 0.1-0.8 mg/g aqueous solutions, 12 hours incubation, FIG. 1
Method: (§1) Compound I was formulated into aqueous solutions of 0.1 mg/g. 0.2 mg/g. 0.4 mg/g. 0.6 mg/g and 0.8 mg/g, added to U87MG, U251, A549 and A375 cell lines cultured in 25T petri dishes, respectively, and incubated in a thermostatic incubator for 12 hours. Subsequently, the cells and culture medium were separated, and the number of cells was determined. After the cells were digested with concentrated nitric acid, the B content in the cells was determined by ICP-AES.
(§2) The […] was 249.772 nm.

[3] = test system: cerebral glioma U87MG cells; assay: Boron uptake in cells, B content by ICP-AES; type: cell-based; conditions: 12 hours, FIG. 3
Method: as §1, §2
(§3) Meanwhile, the BPA was formulated into aqueous solutions of 0.1 mg/g, 0.2 mg/g, 0.4 mg/g, 0.6 mg/g, and 0.8 mg/g, added into U87MG, U251, A375 and HS683 cell lines cultured in 25T petri dishes, respectively, and cultured in a thermostatic incubator for 12 hours. Subsequently, the cells and culture medium were separated, and the number of cells was determined. After the cells were digested with concentrated nitric acid, the B content in the cells was determined by ICP-AES and plotted as shown in FIG. 2.

[4] = test system: glioma cell line U251; assay: Boron uptake in cells, B content by ICP-AES; type: cell-based
Method: as §1, §2, §3

[5] = test system: cerebral glioma HS683 cells; assay: Boron uptake in cells, B content by ICP-AES; type: cell-based; conditions: 12 hours, FIG. 3
[6] = test system: HS683 cerebral glioma; assay: Tissue uptake in mouse cerebral glioma model, ICP-MS; type: in vivo, BALB/c mice; conditions: 500 mg/kg via tail vein, two hours after administration, FIG. 4
Method: Healthy BALB/c mice with an average weight of approximately 21 g were selected and inoculated with HS683 cerebral glioma to establish a mouse cerebral glioma model. After 21 days, the mouse cerebral glioma model was generated, and 500 mg/kg of BPA, temozolomide or compound I solution was injected via the tail vein of the mice. After administration, the major tissues and organs (heart, liver, spleen, lungs, kidneys and tumor sites) of the mice were removed at selected time periods (1 hour, 2 hours, and 4 hours). After washing and weighing, the tissues and organs were digested with concentrated nitric acid. The digested tissue sample was diluted and the concentration in the sample was determined by ICP-MS.

Row | SMILES | uptake by other types of tumor cells [1] | boron concentration in the cells (B content in every 10^6 cells) [2] | cellular uptake compared with BPA [3] | cellular uptake compared with BPA ([4]; U251 cells, 12 hours, FIG. 3) | uptake, ranking among cell lines ([4]; U251 versus U87MG, A549, A375, within 12 hours) | cellular uptake compared with BPA [5] | uptake in the mouse cerebral glioma site compared with BPA [6]
1 | N[C@@H](Cc1ccc(B(O)O)cc1)C(=O)O [BPA, ^10B-p-Dicarboxylboronic acid phenylalanine] | taken up | – | – | – | – | – | –
2 | Cn1nnc2c(C(=O)OCc3ccc([B-]45OCC[N+]4(C)CCO5)cc3)ncn2c1=O (stereo not shown) [Compound I] | – | positively correlated with the concentration of the added product | significantly higher than BPA | significantly higher than BPA | best uptake | significantly higher than BPA | higher than that of BPA
